Reference: patent US20260274807A1 (University of Health Sciences and Pharmacy in St. Louis, priority 2023, published 2026)

Legend:
ERRγ = biological target: T1, ERRγ (Homo sapiens, UniProt P62508); assay: ERRE luciferase reporter assay in HEK293 cells transfected with pcDNA3.1 ERRγ; type: cell-based; set-up: key to EC50 (ERRγ) μM: * <1 μM; ** 1-5 μM; *** >5 μM; i.a. (inactive); settings: HEK293 cells transfected with ERRE reporter construct and pcDNA3.1 ERRγ; compound for 24 hours; luciferase activity
T1 construct: expressed in transfected cells; host or cells: HEK293
T1 sequence (P62508 1-458): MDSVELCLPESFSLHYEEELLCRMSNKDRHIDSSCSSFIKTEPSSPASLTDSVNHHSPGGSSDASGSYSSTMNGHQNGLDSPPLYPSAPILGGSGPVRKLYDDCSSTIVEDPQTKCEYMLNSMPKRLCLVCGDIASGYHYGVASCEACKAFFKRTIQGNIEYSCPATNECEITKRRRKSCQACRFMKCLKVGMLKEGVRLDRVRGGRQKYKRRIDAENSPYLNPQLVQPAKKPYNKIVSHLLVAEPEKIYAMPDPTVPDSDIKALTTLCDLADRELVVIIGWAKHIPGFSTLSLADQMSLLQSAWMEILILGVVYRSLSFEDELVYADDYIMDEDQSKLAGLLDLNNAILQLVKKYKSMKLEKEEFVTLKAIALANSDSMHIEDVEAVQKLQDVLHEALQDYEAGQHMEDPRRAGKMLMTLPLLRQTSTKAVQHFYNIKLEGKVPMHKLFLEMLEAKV

ERRα = biological target: T2, ERRα (Homo sapiens, UniProt P11474); assay: ERRE luciferase reporter assay in HEK293 cells transfected with pcDNA3.1 ERRα; type: cell-based; set-up: key to EC50 (ERRα) μM: * <1 μM; ** 1-5 μM; *** >5 μM; i.a. (inactive); settings: HEK293 cells transfected with ERRE reporter construct and pcDNA3.1 ERRα; compound for 24 hours; luciferase activity
T2 construct: expressed in transfected cells; host or cells: HEK293
T2 sequence (P11474 1-423): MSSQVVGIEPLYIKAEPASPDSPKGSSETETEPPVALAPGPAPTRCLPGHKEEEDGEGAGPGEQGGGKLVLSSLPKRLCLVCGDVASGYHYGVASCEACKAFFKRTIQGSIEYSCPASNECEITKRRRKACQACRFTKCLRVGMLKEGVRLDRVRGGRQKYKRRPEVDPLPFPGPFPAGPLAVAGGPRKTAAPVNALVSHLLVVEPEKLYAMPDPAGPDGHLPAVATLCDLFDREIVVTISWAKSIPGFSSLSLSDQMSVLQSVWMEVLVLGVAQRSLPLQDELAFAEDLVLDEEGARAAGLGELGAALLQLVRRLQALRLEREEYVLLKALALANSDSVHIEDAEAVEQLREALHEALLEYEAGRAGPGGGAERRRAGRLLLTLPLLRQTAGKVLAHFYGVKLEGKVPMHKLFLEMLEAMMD

| EC50 (ERRγ) | EC50 (ERRα) | EC50 (ERRγ) μM (ERRγ) | EC50 (ERRα) μM (ERRα) | Structure (SMILES) |
| --- | --- | --- | --- | --- |
| 1000 to 5000 nM | < 1000 nM |  |  | Nc1cc(Br)ccc1-c1nnc(-c2ccccc2)o1 [Entry 72, 5-bromo-2-(5-phenyl-1,3,4-oxadiazol-2-yl)aniline] |
| < 1000 nM | > 5000 nM |  |  | Cc1ccc(-c2nnc(-c3cnn(-c4ccccc4)c3)s2)cc1 [Entry 1053, 2-(1-phenyl-1H-pyrazol-4-yl)-5-(p-tolyl)-1,3,4-thiadiazole] |
| < 1000 nM | < 1000 nM |  |  | COC(=O)c1cccc(-c2nnc(-c3ccccc3Cl)s2)c1 [Entry 1050, methyl 3-(5-(2-chlorophenyl)-1,3,4-thiadiazol-2-yl)benzoate] |
| < 1000 nM | < 1000 nM |  |  | FC(F)(F)c1cccc(-c2nnc(-c3ccccn3)o2)c1 [Entry 61, 2-(pyridin-2-yl)-5-(3-(trifluoromethyl)phenyl)-1,3,4-oxadiazole] |
| > 5000 nM | > 5000 nM |  |  | FC(F)(F)c1ccc(-c2nnc(-c3ccnc4ccccc34)o2)cc1 [Entry 47, 2-(quinolin-4-yl)-5-(4-(trifluoromethyl)phenyl)-1,3,4-oxadiazole] |
| 1000 to 5000 nM | 1000 to 5000 nM |  |  | O=[N+]([O-])c1ccccc1-c1nnc(-c2ccc(C(F)(F)F)cc2)o1 [Entry 50, 2-(2-nitrophenyl)-5-(4-(trifluoromethyl)phenyl)-1,3,4-oxadiazole] |
| > 5000 nM | > 5000 nM |  |  | COc1ccc(-c2nnc(-c3ccccc3)s2)c(N)c1 [Entry 1026, 5-methoxy-2-(5-phenyl-1,3,4-thiadiazol-2-yl)aniline] |
| 1000 to 5000 nM | 1000 to 5000 nM |  |  | FC(F)(F)c1cccc(-c2nnc(-c3ccc4ccccc4n3)o2)c1 [Entry 60, 2-(quinolin-2-yl)-5-(3-(trifluoromethyl)phenyl)-1,3,4-oxadiazole] |
| < 1000 nM | < 1000 nM |  |  | Cc1ccc(-c2nnc(-c3nccs3)s2)cc1 [Entry 1060, 2-(thiazol-2-yl)-5-(p-tolyl)-1,3,4-thiadiazole] |
| < 1000 nM | < 1000 nM |  |  | Cc1ccc(-c2nnc(-c3ccccc3[N+](=O)[O-])s2)cc1 [Entry 1005, 2-(2-nitrophenyl)-5-(p-tolyl)-1,3,4-thiadiazole] |
| < 1000 nM | < 1000 nM |  |  | Clc1ccc(-c2nnc(-c3ccccc3)s2)cc1 [Entry 1017, 2-(4-chlorophenyl)-5-phenyl-1,3,4-thiadiazole] |
| 1000 to 5000 nM | 1000 to 5000 nM |  |  | COc1ccc(-c2nnc(-c3ccc(N(C)C)cc3)o2)cc1 [Entry 21, 4-(5-(4-methoxyphenyl)-1,3,4-oxadiazol-2-yl)-N,N-dimethylaniline] |
| < 1000 nM | < 1000 nM |  |  | COc1ccc(-c2nnc(-c3ccccc3)o2)c(N)c1 [Entry 71, 5-methoxy-2-(5-phenyl-1,3,4-oxadiazol-2-yl)aniline] |
| < 1000 nM | < 1000 nM |  |  | Cc1ccccc1-c1nnc(-c2ccccc2)o1 [Entry 8] |
| < 1000 nM | < 1000 nM |  |  | COc1ccc(-c2nnc(-c3ccccc3)o2)c([N+](=O)[O-])c1 [Entry 86, 2-(4-methoxy-2-nitrophenyl)-5-phenyl-1,3,4-oxadiazole] |
| < 1000 nM | < 1000 nM |  |  | CC(C)(C)c1ccc(-c2nnc(-c3ccccc3[N+](=O)[O-])s2)cc1 [Entry 1016, 2-(4-(tert-butyl)phenyl)-5-(2-nitrophenyl)-1,3,4-thiadiazole] |
| < 1000 nM | < 1000 nM |  |  | Brc1ccc(-c2nnc(-c3ccccc3)o2)cc1 [Entry 9] |
| < 1000 nM | < 1000 nM |  |  | COc1ccc(-c2nnc(-c3ccc(C)o3)s2)cc1 [Entry 1020, 2-(4-methoxyphenyl)-5-(5-methylfuran-2-yl)-1,3,4-thiadiazole] |
| < 1000 nM | < 1000 nM |  |  | COc1ccc(-c2nnc(-c3ccccc3Cl)s2)cc1 [Entry 1024, 2-(2-chlorophenyl)-5-(4-methoxyphenyl)-1,3,4-thiadiazole] |
| < 1000 nM | < 1000 nM |  |  | Cc1ccc(-c2nnc(-c3ccc([N+](=O)[O-])cc3)o2)cc1 [Entry 39, 2-(4-nitrophenyl)-5-(p-tolyl)-1,3,4-oxadiazole] |
|  |  | i.a. | i.a. | O=C(Nc1nnc(-c2ccccc2)s1)c1ccccc1 [Entry 1032, N-(5-phenyl-1,3,4-thiadiazol-2-yl)benzamide] |
| 1000 to 5000 nM | < 1000 nM |  |  | COc1ccc(-c2nnc(-c3ccc(Br)cc3)s2)cc1 [Entry 1018, 2-(4-bromophenyl)-5-(4-methoxyphenyl)-1,3,4-thiadiazole] |
| < 1000 nM | < 1000 nM |  |  | Oc1ccc(-c2nnc(-c3ccc4ccccc4c3)s2)cc1 [Entry 1046, 4-(5-(naphthalen-2-yl)-1,3,4-thiadiazol-2-yl)phenol] |
| < 1000 nM | 1000 to 5000 nM |  |  | O=[N+]([O-])c1cc(Br)ccc1-c1nnc(-c2ccccc2)s1 [Entry 1037, 2-(4-bromo-2-nitrophenyl)-5-phenyl-1,3,4-thiadiazole] |
| < 1000 nM | < 1000 nM |  |  | FC(F)(F)c1ccc(-c2nnc(-c3ccccn3)o2)cc1 [Entry 49, 2-(pyridin-2-yl)-5-(4-(trifluoromethyl)phenyl)-1,3,4-oxadiazole] |
|  |  | i.a. | i.a. | FC(F)(F)c1ccc(-c2nnc(-c3ccc4ccccc4n3)o2)cc1 [Entry 48, 2-(quinolin-2-yl)-5-(4-(trifluoromethyl)phenyl)-1,3,4-oxadiazole] |

| Structure (SMILES) | EC50 (ERRγ) | EC50 (ERRα) | EC50 (ERRγ) μM (ERRγ) | EC50 (ERRα) μM (ERRα) |
| --- | --- | --- | --- | --- |
| O=[N+]([O-])c1ccc(-c2nnc(-c3ccc([N+](=O)[O-])cc3)o2)cc1 [Entry 13, 2,5-bis(4-nitrophenyl)-1,3,4-oxadiazole] | 1000 to 5000 nM | 1000 to 5000 nM |  |  |
